The values below come from ChEMBL document CHEMBL1221268, “Synthesis of a series of novel 2,4,5-trisubstituted selenazole compounds as potential PLTP inhibitors” (Bioorg Med Chem Lett, 2010).

As a reminder, the IC50 is the concentration that gives 50% inhibition.

Each structure is given as a SMILES string.

Assay [1] addresses T1, Cholesteryl ester transfer protein (Homo sapiens, UniProt P11597).
T1 sequence (P11597 whole entry): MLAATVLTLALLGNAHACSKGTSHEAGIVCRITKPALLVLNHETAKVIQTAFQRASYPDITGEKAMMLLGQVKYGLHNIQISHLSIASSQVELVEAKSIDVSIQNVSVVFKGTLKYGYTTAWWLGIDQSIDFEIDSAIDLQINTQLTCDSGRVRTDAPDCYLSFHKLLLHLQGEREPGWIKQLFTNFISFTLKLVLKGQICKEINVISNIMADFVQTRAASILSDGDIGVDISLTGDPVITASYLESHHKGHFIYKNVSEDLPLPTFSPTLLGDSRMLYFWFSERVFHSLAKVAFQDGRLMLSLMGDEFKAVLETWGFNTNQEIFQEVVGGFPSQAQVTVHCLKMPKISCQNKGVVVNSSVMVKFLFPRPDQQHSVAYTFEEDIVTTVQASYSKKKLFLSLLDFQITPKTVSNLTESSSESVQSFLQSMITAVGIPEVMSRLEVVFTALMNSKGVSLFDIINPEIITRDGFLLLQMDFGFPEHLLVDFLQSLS
Briefly: Inhibition of CETP.

In assay [2] the target is Phospholipid transfer protein (Homo sapiens, UniProt P55058). Nature of the assay: Inhibition of PLTP.
Chain of Phospholipid transfer protein (P55058 whole entry): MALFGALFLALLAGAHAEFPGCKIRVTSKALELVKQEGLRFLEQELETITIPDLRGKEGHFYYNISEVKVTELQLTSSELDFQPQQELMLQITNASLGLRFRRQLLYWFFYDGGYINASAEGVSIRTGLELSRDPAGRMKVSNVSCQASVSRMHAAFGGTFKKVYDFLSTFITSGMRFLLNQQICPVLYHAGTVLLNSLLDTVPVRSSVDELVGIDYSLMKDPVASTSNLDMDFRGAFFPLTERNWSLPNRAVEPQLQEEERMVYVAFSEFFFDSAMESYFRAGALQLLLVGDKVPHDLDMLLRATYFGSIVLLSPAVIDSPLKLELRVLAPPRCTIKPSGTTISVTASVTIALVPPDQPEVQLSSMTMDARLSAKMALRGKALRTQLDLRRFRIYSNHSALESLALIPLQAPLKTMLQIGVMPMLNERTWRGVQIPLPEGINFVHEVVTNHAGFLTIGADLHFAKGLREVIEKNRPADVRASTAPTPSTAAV

Turning to `CCc1[se]c(NC(=O)c2cc(OC)c(OC)c(OC)c2)nc1-c1ccc(OC)cc1`, the IC50 entry in assay [1] and in assay [2] was “Not Active” throughout.
Regarding `O=C(Nc1nc(-c2ccc(O)cc2)c(Cc2ccccc2)[se]1)c1ccc(O)c(O)c1`, the results for the half-inhibitory concentration (IC50) entry in assay [1] and in assay [2] (read-out: IC50) were “Not Active” and 35 µM, respectively.
For the molecule `CCc1[se]c(NC(=O)c2ccc(Cl)cc2)nc1-c1ccc(OC)cc1`, the IC50 entry in assay [1] and in assay [2] was “Not Active” in each case.
Consider `CCCCc1[se]c(NC(C)=O)nc1-c1ccc(O)cc1`, for which the half-maximal inhibitory concentration (IC50) result in assay [1] was “Not Active”; in assay [2] (read-out: IC50) it was 60 µM.
Consider `COc1ccc(-c2nc(NC(=O)c3cc(OC)c(OC)c(OC)c3)[se]c2Cc2ccccc2)cc1`, for which the concentration for half-maximal inhibition (IC50) in assay [1] (read-out: IC50) was 25 µM; in assay [2], “Not Active”.
In the case of `CCc1[se]c(NC(=O)c2cc(O)c(O)c(O)c2)nc1-c1ccc(O)cc1`, the IC50 entry is “Not Active” in assay [1] and 32 µM in assay [2] (read-out: IC50).
Take `CCCCc1[se]c(NC(=O)c2ccc(Cl)cc2)nc1-c1ccc(O)cc1`: the IC50 entry was “Not Active” in assay [1] and 60 µM in assay [2] (read-out: IC50).
With `O=C(Nc1nc(-c2ccccc2)c(-c2ccccc2)[se]1)c1ccccc1`, the half-maximal inhibitory concentration (IC50) result in assay [1] and in assay [2] was “Not Active” in each case.
Take `COc1ccc(-c2nc(NC(=O)c3ccc([N+](=O)[O-])cc3)[se]c2Cc2ccccc2)cc1`: the values for the IC50 entry in assay [1] and in assay [2] (read-out: IC50) were “Not Active” and 85 µM, respectively.
Consider `CCc1[se]c(NC(=O)c2ccc(Cl)cc2)nc1-c1ccc(O)cc1`, for which the results for the half-maximal inhibitory concentration (IC50) entry in assay [1] and in assay [2] (read-out: IC50) were “Not Active” and 60 µM, respectively.
`COc1cc(C(=O)Nc2nc(-c3ccccc3)c(-c3ccccc3)[se]2)cc(OC)c1OC`: the IC50 entry in assay [1] and in assay [2] was “Not Active” each time.
For `O=C(Nc1nc(-c2ccc(O)cc2)c(Cc2ccccc2)[se]1)c1cc(O)c(O)c(O)c1`, the 50% inhibitory concentration (IC50) result is “Not Active” in assay [1] and 32 µM in assay [2] (read-out: IC50).
Consider `O=C(Nc1nc(-c2ccccc2)c(-c2ccccc2)[se]1)c1cc(F)c(F)c(F)c1`, for which the IC50 result in assay [1] and in assay [2] was “Not Active” in each case.
Turning to `CCCCc1[se]c(NC(=O)c2ccc(OC)c(OC)c2)nc1-c1ccc(OC)cc1`, the results for the concentration for half-maximal inhibition (IC50) entry in assay [1] and in assay [2] (read-out: IC50) were “Not Active” and 80 µM, respectively.
As to `CCCCc1[se]c(NC(=O)c2cc(O)c(O)c(O)c2)nc1-c1ccc(O)cc1`, the IC50 entry in assay [1] was “Not Active”; in assay [2] (read-out: IC50), 10 µM.
For the molecule `CCCCCC(=O)Nc1nc(-c2ccc(O)cc2)c(Cc2ccccc2)[se]1`, the figures for the IC50 in assay [1] (read-out: IC50) and in assay [2] (read-out: IC50) were 25 µM and 60 µM, respectively.
As for `O=C(Nc1nc(-c2ccccc2)c(-c2ccccc2)[se]1)c1cc(O)c(O)c(O)c1`, the IC50 result in assay [1] is “Not Active”; in assay [2] (read-out: IC50) it was 25 µM.
In the case of `CCCCc1[se]c(NC(=O)c2cc(OC)c(OC)c(OC)c2)nc1-c1ccc(OC)cc1`, the 50% inhibitory concentration (IC50) entry is “Not Active” in assay [1] and 150 µM in assay [2] (read-out: IC50).
Regarding `COc1ccc(-c2nc(NC(=O)c3ccc(OC)c(OC)c3)[se]c2Cc2ccccc2)cc1`, the figures for the concentration for half-maximal inhibition (IC50) in assay [1] (read-out: IC50) and in assay [2] (read-out: IC50) were 30 µM and 80 µM, respectively.
Regarding `CCc1[se]c(NC(=O)c2ccc(OC)c(OC)c2)nc1-c1ccc(OC)cc1`, the half-inhibitory concentration (IC50) result is “Not Active” in assay [1] and 100 µM in assay [2] (read-out: IC50).
For the molecule `O=C(Nc1nc(-c2ccccc2)c(-c2ccccc2)[se]1)c1ccc(O)c(O)c1`, the 50% inhibitory concentration (IC50) entry was “Not Active” in assay [1] and 8 µM in assay [2] (read-out: IC50).
